Experimental data as given in PMC10945555, “Improving Activity of New Arylurea Agents against Multidrug-Resistant and Biofilm-Producing Staphylococcus epidermidis” (ACS Medicinal Chemistry Letters, 2024).
Read-outs that look alike come from different tables or passages of the source.

Test system: clinical Staphylococcus epidermidis strains
Assay: Minimal bactericidal concentration (MBC), MBC/MIC
Type: cell-based
Settings: for MBC: Staphylococcus epidermidis
Protocol: 2.5 Evaluation of bacteriostatic/bactericidal properties […]
determining MBC (Minimal Bactericidal Concentration) values. The study was conducted in accordance with the guidelines of the Clinical and Laboratory Standards Institute (CLSI).13 The MBC value was assumed to be the concentration of the compound inhibiting the growth of strains in 99.9%. Then, the value of the MBC/MIC ratio was calculated to assess its bactericidal or bacteriostatic activity. […]

O=C(Nc1cccc(Cl)c1)NC1CCN(CCC(Oc2ccc(C(F)(F)F)cc2)c2cccs2)CC1 (stereo not drawn) [Compound 25]
6.25 µg/mL: MBC (clinical strain 29 (Table S5), read-out: MBC) | MBC (clinical strain 73 (Table S5), read-out: MBC) | MBC (clinical strain 79 (Table S5), read-out: MBC)
25 µg/mL: MBC (clinical strain 1 (Table S5), read-out: MBC) | MBC (clinical strain 2 (Table S5), read-out: MBC) | MBC (clinical strain 4 (Table S5), read-out: MBC) | MBC (clinical strain 6 (Table S5), read-out: MBC) | MBC (clinical strain 7 (Table S5), read-out: MBC) | MBC (clinical strain 11 (Table S5), read-out: MBC) | MBC (clinical strain 12 (Table S5), read-out: MBC) | MBC (clinical strain 13 (Table S5), read-out: MBC) | MBC (clinical strain 14 (Table S5), read-out: MBC) | MBC (clinical strain 16 (Table S5), read-out: MBC) | MBC (clinical strain 20 (Table S5), read-out: MBC) | MBC (clinical strain 21 (Table S5), read-out: MBC) | MBC (clinical strain 23 (Table S5), read-out: MBC) | MBC (clinical strain 24 (Table S5), read-out: MBC) | MBC (clinical strain 31 (Table S5), read-out: MBC) | MBC (clinical strain 32 (Table S5), read-out: MBC) | MBC (clinical strain 33 (Table S5), read-out: MBC) | MBC (clinical strain 34 (Table S5), read-out: MBC) | MBC (clinical strain 35 (Table S5), read-out: MBC) | MBC (clinical strain 36 (Table S5), read-out: MBC) | MBC (clinical strain 37 (Table S5), read-out: MBC) | MBC (clinical strain 38 (Table S5), read-out: MBC) | MBC (clinical strain 41 (Table S5), read-out: MBC) | MBC (clinical strain 43 (Table S5), read-out: MBC) | MBC (clinical strain 44 (Table S5), read-out: MBC) | MBC (clinical strain 45 (Table S5), read-out: MBC) | MBC (clinical strain 47 (Table S5), read-out: MBC) | MBC (clinical strain 48 (Table S5), read-out: MBC) | MBC (clinical strain 56 (Table S5), read-out: MBC) | MBC (clinical strain 61 (Table S5), read-out: MBC) | MBC (clinical strain 62 (Table S5), read-out: MBC) | MBC (clinical strain 63 (Table S5), read-out: MBC) | MBC (clinical strain 66 (Table S5), read-out: MBC) | MBC (clinical strain 69 (Table S5), read-out: MBC) | MBC (clinical strain 71 (Table S5), read-out: MBC) | MBC (clinical strain 76 (Table S5), read-out: MBC) | MBC (clinical strain 78 (Table S5), read-out: MBC)
50 µg/mL: MBC (clinical strain 5 (Table S5), read-out: MBC) | MBC (clinical strain 9 (Table S5), read-out: MBC) | MBC (clinical strain 10 (Table S5), read-out: MBC) | MBC (clinical strain 15 (Table S5), read-out: MBC) | MBC (clinical strain 18 (Table S5), read-out: MBC) | MBC (clinical strain 26 (Table S5), read-out: MBC) | MBC (clinical strain 27 (Table S5), read-out: MBC) | MBC (clinical strain 50 (Table S5), read-out: MBC) | MBC (clinical strain 51 (Table S5), read-out: MBC) | MBC (clinical strain 52 (Table S5), read-out: MBC) | MBC (clinical strain 53 (Table S5), read-out: MBC) | MBC (clinical strain 55 (Table S5), read-out: MBC) | MBC (clinical strain 57 (Table S5), read-out: MBC) | MBC (clinical strain 59 (Table S5), read-out: MBC) | MBC (clinical strain 60 (Table S5), read-out: MBC) | MBC (clinical strain 64 (Table S5), read-out: MBC) | MBC (clinical strain 65 (Table S5), read-out: MBC) | MBC (clinical strain 67 (Table S5), read-out: MBC) | MBC (clinical strain 68 (Table S5), read-out: MBC) | MBC (clinical strain 70 (Table S5), read-out: MBC) | MBC (clinical strain 72 (Table S5), read-out: MBC) | MBC (clinical strain 74 (Table S5), read-out: MBC) | MBC (clinical strain 75 (Table S5), read-out: MBC) | MBC (clinical strain 77 (Table S5), read-out: MBC) | MBC (clinical strain 80 (Table S5), read-out: MBC)
29.2 µg/mL: MBC (81 clinical strains (Table S5), read-out: Average of MBC) | MBC (read-out: Mean MBC)
12.5 µg/mL: MBC (clinical strain 3 (Table S5), read-out: MBC) | MBC (clinical strain 8 (Table S5), read-out: MBC) | MBC (clinical strain 19 (Table S5), read-out: MBC) | MBC (clinical strain 22 (Table S5), read-out: MBC) | MBC (clinical strain 25 (Table S5), read-out: MBC) | MBC (clinical strain 28 (Table S5), read-out: MBC) | MBC (clinical strain 30 (Table S5), read-out: MBC) | MBC (clinical strain 39 (Table S5), read-out: MBC) | MBC (clinical strain 40 (Table S5), read-out: MBC) | MBC (clinical strain 42 (Table S5), read-out: MBC) | MBC (clinical strain 46 (Table S5), read-out: MBC) | MBC (clinical strain 54 (Table S5), read-out: MBC) | MBC (clinical strain 58 (Table S5), read-out: MBC)
3.12 µg/mL: MBC (clinical strain 81 (Table S5), read-out: MBC)
16: MBC/MIC ratio (clinical S. epidermidis strains) | MBC/MIC (clinical strain 1 (Table S5)) | MBC/MIC (clinical strain 2 (Table S5)) | MBC/MIC (clinical strain 3 (Table S5)) | MBC/MIC (clinical strain 4 (Table S5)) | MBC/MIC (clinical strain 5 (Table S5)) | MBC/MIC (clinical strain 6 (Table S5)) | MBC/MIC (clinical strain 7 (Table S5)) | MBC/MIC (clinical strain 8 (Table S5)) | MBC/MIC (clinical strain 9 (Table S5)) | MBC/MIC (clinical strain 10 (Table S5)) | MBC/MIC (clinical strain 11 (Table S5)) | MBC/MIC (clinical strain 12 (Table S5)) | MBC/MIC (clinical strain 13 (Table S5)) | MBC/MIC (clinical strain 14 (Table S5)) | MBC/MIC (clinical strain 15 (Table S5)) | MBC/MIC (clinical strain 16 (Table S5)) | MBC/MIC (clinical strain 17 (Table S5)) | MBC/MIC (clinical strain 18 (Table S5)) | MBC/MIC (clinical strain 19 (Table S5)) | MBC/MIC (clinical strain 20 (Table S5)) | MBC/MIC (clinical strain 21 (Table S5)) | MBC/MIC (clinical strain 22 (Table S5)) | MBC/MIC (clinical strain 23 (Table S5)) | MBC/MIC (clinical strain 24 (Table S5)) | MBC/MIC (clinical strain 25 (Table S5)) | MBC/MIC (clinical strain 26 (Table S5)) | MBC/MIC (clinical strain 27 (Table S5)) | MBC/MIC (clinical strain 28 (Table S5)) | MBC/MIC (clinical strain 29 (Table S5)) | MBC/MIC (clinical strain 30 (Table S5)) | MBC/MIC (clinical strain 31 (Table S5)) | MBC/MIC (clinical strain 32 (Table S5)) | MBC/MIC (clinical strain 33 (Table S5)) | MBC/MIC (clinical strain 34 (Table S5)) | MBC/MIC (clinical strain 35 (Table S5)) | MBC/MIC (clinical strain 36 (Table S5)) | MBC/MIC (clinical strain 37 (Table S5)) | MBC/MIC (clinical strain 38 (Table S5)) | MBC/MIC (clinical strain 39 (Table S5)) | MBC/MIC (clinical strain 40 (Table S5)) | MBC/MIC (clinical strain 41 (Table S5)) | MBC/MIC (clinical strain 42 (Table S5)) | MBC/MIC (clinical strain 43 (Table S5)) | MBC/MIC (clinical strain 44 (Table S5)) | MBC/MIC (clinical strain 45 (Table S5)) | MBC/MIC (clinical strain 46 (Table S5)) | MBC/MIC (clinical strain 47 (Table S5)) | MBC/MIC (clinical strain 48 (Table S5)) | MBC/MIC (clinical strain 49 (Table S5)) | MBC/MIC (clinical strain 50 (Table S5)) | MBC/MIC (clinical strain 51 (Table S5)) | MBC/MIC (clinical strain 52 (Table S5)) | MBC/MIC (clinical strain 53 (Table S5)) | MBC/MIC (clinical strain 54 (Table S5)) | MBC/MIC (clinical strain 55 (Table S5)) | MBC/MIC (clinical strain 56 (Table S5)) | MBC/MIC (clinical strain 57 (Table S5)) | MBC/MIC (clinical strain 58 (Table S5)) | MBC/MIC (clinical strain 59 (Table S5)) | MBC/MIC (clinical strain 60 (Table S5)) | MBC/MIC (clinical strain 61 (Table S5)) | MBC/MIC (clinical strain 62 (Table S5)) | MBC/MIC (clinical strain 63 (Table S5)) | MBC/MIC (clinical strain 64 (Table S5)) | MBC/MIC (clinical strain 65 (Table S5)) | MBC/MIC (clinical strain 66 (Table S5)) | MBC/MIC (clinical strain 67 (Table S5)) | MBC/MIC (clinical strain 68 (Table S5)) | MBC/MIC (clinical strain 69 (Table S5)) | MBC/MIC (clinical strain 70 (Table S5)) | MBC/MIC (clinical strain 71 (Table S5)) | MBC/MIC (clinical strain 72 (Table S5)) | MBC/MIC (clinical strain 73 (Table S5)) | MBC/MIC (clinical strain 74 (Table S5)) | MBC/MIC (clinical strain 75 (Table S5)) | MBC/MIC (clinical strain 76 (Table S5)) | MBC/MIC (clinical strain 77 (Table S5)) | MBC/MIC (clinical strain 78 (Table S5)) | MBC/MIC (clinical strain 79 (Table S5)) | MBC/MIC (clinical strain 80 (Table S5)) | MBC/MIC (clinical strain 81 (Table S5))
1.6 µg/mL: MBC (clinical strain 17 (Table S5), read-out: MBC) | MBC (clinical strain 49 (Table S5), read-out: MBC)
